The source made the active and inactive calls.

What is called IC50 is the concentration needed to halve the response being measured. What is called Ki is the dissociation constant of the complex between target and ligand, obtained from inhibition or displacement. What is called GI50 is the concentration at which growth is held to half of that of the control.

The target of assay [1] is T1, Sentrin-specific protease 8 (Homo sapiens, UniProt Q96LD8).
T1 sequence (Q96LD8 whole entry): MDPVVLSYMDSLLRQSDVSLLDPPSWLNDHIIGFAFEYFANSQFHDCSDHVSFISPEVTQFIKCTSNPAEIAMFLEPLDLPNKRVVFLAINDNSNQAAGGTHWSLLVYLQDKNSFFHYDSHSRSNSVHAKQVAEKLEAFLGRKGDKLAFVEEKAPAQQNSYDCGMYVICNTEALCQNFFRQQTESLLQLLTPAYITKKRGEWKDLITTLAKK
Briefly: SENP8 protease inhibitors, SAR follow-up, biochemical, luminescence, set 2 (AID 588601). The assay is classed as functional.

In assay [2] the target is T2, Sentrin-specific protease 6 (Homo sapiens, UniProt Q9GZR1).
T2 sequence (Q9GZR1 whole entry): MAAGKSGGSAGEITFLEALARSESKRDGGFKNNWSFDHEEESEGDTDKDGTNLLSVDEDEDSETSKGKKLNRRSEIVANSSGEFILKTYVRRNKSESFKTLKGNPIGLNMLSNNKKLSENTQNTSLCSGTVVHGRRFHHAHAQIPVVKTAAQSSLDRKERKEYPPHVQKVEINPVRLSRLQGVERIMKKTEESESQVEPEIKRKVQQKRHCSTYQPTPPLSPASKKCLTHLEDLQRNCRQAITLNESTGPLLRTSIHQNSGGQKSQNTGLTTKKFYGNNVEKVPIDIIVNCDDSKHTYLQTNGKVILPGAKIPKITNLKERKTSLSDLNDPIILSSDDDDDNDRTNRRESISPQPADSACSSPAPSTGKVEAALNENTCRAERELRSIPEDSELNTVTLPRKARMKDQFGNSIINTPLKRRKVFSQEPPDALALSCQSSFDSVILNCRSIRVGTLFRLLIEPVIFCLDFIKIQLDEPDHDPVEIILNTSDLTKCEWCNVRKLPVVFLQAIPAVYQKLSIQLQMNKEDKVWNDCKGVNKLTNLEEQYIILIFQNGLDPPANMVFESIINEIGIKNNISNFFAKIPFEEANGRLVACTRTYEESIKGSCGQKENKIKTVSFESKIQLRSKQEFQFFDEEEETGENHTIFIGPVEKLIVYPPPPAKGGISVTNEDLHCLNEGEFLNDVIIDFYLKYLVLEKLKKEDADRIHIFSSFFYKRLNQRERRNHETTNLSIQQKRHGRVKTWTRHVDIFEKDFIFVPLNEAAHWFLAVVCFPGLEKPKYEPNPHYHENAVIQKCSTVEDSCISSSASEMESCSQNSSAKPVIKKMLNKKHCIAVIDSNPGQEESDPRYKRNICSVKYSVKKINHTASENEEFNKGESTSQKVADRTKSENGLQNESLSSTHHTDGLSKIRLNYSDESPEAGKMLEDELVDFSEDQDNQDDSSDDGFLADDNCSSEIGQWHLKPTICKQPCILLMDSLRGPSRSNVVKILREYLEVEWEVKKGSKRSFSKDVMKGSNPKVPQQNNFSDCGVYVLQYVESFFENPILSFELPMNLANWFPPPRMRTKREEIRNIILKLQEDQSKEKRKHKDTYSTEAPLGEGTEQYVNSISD
Description: SAR Analysis of small molecule inhibitors of Sentrin-specific protease 6 (SENP6) using a Luminescent assay. [Related pubchem assays (depositor defined):AID2582, AID2599]. The assay is classed as functional.

Assay [3] can be described thus: inhibitors of intracellular T. cruzi replication, confirmation, NIH3T3 host cells, beta-gal luminescence (AID 2044).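 Further: intracellular parasites grown in NIH/3T3 mouse fibroblasts as host cells; luminescent beta-galactosidase reporter signal from transgenic T. cruzi replicating inside host cells; inhibitors lower the luminescence signal.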 The assay is classed as functional, cell-based.
The nature of assay [4]: cytotoxicity toward NIH3T3 fibroblasts, dose response, counter-screen, cell-based, ATP luminescence, mouse fibroblasts (AID 2010).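 Further: cells exposed to compound for about 90 hours before reading.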 The class given is functional.
Assay [5] addresses T1, Sentrin-specific protease 8. Description: SENP8 protease inhibitors, SAR follow-up, biochemical, luminescence (AID 504501). The assay is classed as functional.
Assay [6] concerns the target T2, Sentrin-specific protease 6. Briefly: SENP6 protease inhibitors, SAR follow-up, biochemical, luminescence, set 2 (AID 588598). The assay is classed as functional.
Assay [7] deals with T3, Caspase-3 (Homo sapiens, UniProt P42574).
T3 sequence (P42574 whole entry): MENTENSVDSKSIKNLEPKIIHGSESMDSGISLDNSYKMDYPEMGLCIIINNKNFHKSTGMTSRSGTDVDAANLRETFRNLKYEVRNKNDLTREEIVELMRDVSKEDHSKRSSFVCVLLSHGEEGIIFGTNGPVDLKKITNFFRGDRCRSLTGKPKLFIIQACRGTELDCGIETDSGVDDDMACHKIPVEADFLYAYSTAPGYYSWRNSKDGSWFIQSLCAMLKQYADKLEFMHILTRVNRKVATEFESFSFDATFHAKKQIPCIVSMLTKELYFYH
Description: SAR Analysis of small molecule inhibitors of Sentrin-specific proteases (SENPs) using a Caspase-3 Selectivity assay. [Related pubchem assays (depositor defined):AID2540, AID2599, AID434973, AID489001]. The class given is functional.

Assay [8] concerns the target T4, Sentrin-specific protease 7 (Homo sapiens, UniProt Q9BQF6).
T4 sequence (Q9BQF6 whole entry): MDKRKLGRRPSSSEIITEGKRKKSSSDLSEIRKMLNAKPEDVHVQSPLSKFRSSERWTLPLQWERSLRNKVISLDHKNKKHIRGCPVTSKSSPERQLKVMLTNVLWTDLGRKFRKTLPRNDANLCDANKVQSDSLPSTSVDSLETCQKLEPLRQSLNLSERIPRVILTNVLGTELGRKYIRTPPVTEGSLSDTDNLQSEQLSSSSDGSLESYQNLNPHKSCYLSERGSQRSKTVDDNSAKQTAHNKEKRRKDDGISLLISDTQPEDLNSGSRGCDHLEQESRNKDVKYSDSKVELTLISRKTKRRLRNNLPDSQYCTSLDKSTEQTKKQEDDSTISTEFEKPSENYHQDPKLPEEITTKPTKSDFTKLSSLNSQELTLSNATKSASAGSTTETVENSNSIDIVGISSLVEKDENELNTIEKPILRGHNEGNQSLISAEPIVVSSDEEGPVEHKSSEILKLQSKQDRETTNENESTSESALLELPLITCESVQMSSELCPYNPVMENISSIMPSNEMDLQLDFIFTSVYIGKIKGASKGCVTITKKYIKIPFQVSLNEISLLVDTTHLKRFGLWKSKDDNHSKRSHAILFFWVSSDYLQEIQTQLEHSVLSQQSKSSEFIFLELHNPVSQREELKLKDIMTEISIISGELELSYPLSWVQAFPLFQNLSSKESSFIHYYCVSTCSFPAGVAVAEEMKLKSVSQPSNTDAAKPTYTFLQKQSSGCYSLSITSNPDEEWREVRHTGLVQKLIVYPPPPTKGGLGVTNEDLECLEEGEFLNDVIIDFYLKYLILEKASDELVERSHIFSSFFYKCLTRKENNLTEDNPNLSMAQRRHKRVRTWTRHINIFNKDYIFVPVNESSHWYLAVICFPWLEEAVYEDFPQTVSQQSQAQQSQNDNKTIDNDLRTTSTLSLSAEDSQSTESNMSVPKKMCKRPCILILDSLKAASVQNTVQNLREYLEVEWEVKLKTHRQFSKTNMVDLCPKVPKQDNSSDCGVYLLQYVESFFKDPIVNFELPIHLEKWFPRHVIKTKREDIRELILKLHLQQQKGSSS
Description: SENP7 protease inhibitors, SAR follow-up, biochemical, luminescence (AID 504497). The assay is classed as functional.

The target in assay [9] is T4, Sentrin-specific protease 7. Briefly: SENP7 protease inhibitors, SAR follow-up, biochemical, luminescence, set 2 (AID 588600). The class given is functional.
Assay [10] concerns the target T3, Caspase-3. Briefly: caspase-3 inhibitors as off-family protease, SAR follow-up, selectivity assay for SENP protease inhibitor project, biochemical, luminescence, set 2 (AID 588599). The class given is functional.
The target of assay [11] is Aurora kinase A (Homo sapiens, UniProt O14965). The class given is functional.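 Further: value from the Navigating the Kinome kinase panel profiling, panel entry STK6.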
Aurora kinase A, sequence (O14965 whole entry): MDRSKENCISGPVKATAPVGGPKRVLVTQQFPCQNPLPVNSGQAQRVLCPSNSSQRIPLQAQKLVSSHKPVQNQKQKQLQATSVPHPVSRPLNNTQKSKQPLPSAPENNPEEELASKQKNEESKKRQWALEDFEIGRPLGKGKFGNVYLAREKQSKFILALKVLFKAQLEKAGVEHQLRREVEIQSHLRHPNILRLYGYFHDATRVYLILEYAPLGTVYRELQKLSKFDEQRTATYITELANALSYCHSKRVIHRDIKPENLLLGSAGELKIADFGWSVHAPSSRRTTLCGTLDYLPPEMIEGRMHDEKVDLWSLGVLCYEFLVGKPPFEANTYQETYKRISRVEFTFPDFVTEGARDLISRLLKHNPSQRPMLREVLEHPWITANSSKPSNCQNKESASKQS
For assay [12], the target named is Aurora kinase B (Homo sapiens, UniProt Q96GD4). The assay is classed as functional.
Aurora kinase B, sequence (Q96GD4 whole entry): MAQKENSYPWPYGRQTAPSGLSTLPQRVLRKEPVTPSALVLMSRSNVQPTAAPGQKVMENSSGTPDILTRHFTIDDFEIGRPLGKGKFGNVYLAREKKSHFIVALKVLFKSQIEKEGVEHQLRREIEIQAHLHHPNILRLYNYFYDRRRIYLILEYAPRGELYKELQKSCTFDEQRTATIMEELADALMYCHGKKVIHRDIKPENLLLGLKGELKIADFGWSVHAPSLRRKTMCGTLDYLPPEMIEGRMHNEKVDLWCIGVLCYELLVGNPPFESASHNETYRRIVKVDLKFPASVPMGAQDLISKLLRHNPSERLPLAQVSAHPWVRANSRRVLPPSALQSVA
Assay [13] deals with T5, Apoptotic protease-activating factor 1 (Homo sapiens, UniProt O14727).
T5 sequence (O14727 whole entry): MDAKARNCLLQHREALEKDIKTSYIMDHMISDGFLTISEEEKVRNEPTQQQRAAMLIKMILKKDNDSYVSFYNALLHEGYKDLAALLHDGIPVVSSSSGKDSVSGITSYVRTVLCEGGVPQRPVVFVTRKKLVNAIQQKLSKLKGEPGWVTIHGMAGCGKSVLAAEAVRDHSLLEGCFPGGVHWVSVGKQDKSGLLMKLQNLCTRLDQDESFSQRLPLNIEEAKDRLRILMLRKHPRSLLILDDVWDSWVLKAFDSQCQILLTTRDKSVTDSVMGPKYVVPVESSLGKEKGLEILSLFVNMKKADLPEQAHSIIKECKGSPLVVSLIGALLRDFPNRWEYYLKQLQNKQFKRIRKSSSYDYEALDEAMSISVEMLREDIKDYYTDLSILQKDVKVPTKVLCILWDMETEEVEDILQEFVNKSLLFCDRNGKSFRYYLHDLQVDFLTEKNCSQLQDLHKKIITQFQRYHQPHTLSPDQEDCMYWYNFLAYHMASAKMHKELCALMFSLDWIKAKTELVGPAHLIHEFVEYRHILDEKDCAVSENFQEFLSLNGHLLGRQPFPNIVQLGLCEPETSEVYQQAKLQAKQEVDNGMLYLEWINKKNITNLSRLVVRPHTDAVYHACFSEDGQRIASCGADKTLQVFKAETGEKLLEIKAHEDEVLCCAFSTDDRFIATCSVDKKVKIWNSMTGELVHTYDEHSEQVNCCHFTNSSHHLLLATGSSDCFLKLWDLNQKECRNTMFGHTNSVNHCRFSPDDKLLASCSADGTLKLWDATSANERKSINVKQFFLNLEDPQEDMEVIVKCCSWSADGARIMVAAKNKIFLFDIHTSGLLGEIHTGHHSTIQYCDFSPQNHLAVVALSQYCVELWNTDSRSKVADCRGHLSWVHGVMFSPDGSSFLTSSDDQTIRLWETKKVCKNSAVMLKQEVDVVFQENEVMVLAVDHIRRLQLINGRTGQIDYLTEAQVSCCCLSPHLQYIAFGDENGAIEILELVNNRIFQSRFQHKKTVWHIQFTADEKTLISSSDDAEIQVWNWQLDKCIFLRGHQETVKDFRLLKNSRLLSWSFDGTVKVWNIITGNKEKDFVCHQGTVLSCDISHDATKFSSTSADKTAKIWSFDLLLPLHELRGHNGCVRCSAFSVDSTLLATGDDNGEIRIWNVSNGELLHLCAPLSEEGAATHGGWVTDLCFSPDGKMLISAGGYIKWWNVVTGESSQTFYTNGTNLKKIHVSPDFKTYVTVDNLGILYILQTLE
Description: SAR analysis of small molecule Activators of Apaf-1 in a Fluorescent assay. The conditions noted are these: read-out: EC50_Mean. The class given is functional.

For assay [14], the system named is SN12K1. Briefly: cells. The class given is functional. The conditions noted are these: Homo sapiens.
The subject of assay [15] is P388/ADR. Description: cells. The class given is functional. The conditions noted are these: Mus musculus.
Assay [16] relates to P388. Briefly: cells. The class given is functional. The conditions noted are these: Mus musculus.
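Wherever EC50 Mean is given: caspase-3 cleavage of fluorogenic Rh110 DEVD substrate downstream of apoptosome activation.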

For `O=C(Nc1nc2ccc(Cl)cc2s1)C1CC1`, the IC50 in assay [1] is 5.97 µM (active); in [2], > 99 µM (inactive); in assay [5], > 99 µM (inactive); in [6], 24.6 µM (active); in assay [7], 25 µM (active); in [8], 5.9 µM (active). The IC50 in assay [9] was 7.46 µM (active); in assay [10], 28.9 µM (active). For the same compound, the EC50 was 0.119 µM (active) in assay [3] and > 16 µM (not active) in [4].

Take `Cc1ccc(N2CC(NC(=O)C(=O)c3c(C)[nH]c4ccccc34)CC2=O)cc1` (configuration not stated): the IC50 in [1], in [6], in assay [9] and in [10] was > 99 µM (inactive) throughout.

Turning to `CCCCc1ccc2nc(NC(=O)c3sccc3C)sc2c1`, the IC50 was 0.742 µM (active) in assay [2], 0.672 µM (active) in assay [5], 0.541 µM (active) in [7] and 0.854 µM (active) in [8].

In the case of `COCCOC1CCC(n2nc(-c3ccc(Nc4nc5cc(Br)cc(C)c5o4)cc3)c3c(N)ncnc32)CC1` (configuration not stated), the Ki in [11] is 0.00398 µM (active); in [12], 0.00316 µM (active).

In the case of `CC(C)(C)c1ccc(C(=O)NC(CCc2ccccc2)CC(=O)O)cc1` (configuration not stated), in [13], the EC50 was > 100 µM (inactive).

With `COC1OCC(O)C(NC(=O)N(C)N=O)C1O` (configuration not stated), the GI50 in assay [14], in assay [15] and in [16] was > 100 µM (inactive) throughout.

Consider `COC(=O)C[C@](O)(CCC(C)(C)O)C(=O)O[C@@H]1C(OC)=C[C@]23CCCN2CCc2cc4c(cc2[C@H]13)OCO4` [HARRINGTONINE], for which the GI50 was 0.0661 µM (active) in assay [14], 0.738 µM (active) in [15] and 0.0252 µM (active) in assay [16].
